{"source": "patent US20250228891A1", "about": "“COMBINATIONS CONTAINING OXYLANTHANUM CARBONATE FOR TREATING HYPERPHOSPHATEMIA” (UNICYCIVE THERAPEUTICS, INC., priority 2024, published 2025)", "key": {"[1]": {"test_system": "Sprague Dawley rats", "assay": "Urinary phosphate excretion in rats fed a high phosphorus diet (OLC+Tenapanor Combo Study, Example 1)", "format": "in vivo, rat", "conditions": "Days 9 to 11", "method": "FIG. 1. Represents the Study Design of the OLC+Tenapanor Combo Study described in Example 1. The study consisted of acclimatization, randomization, in vivo study period, and termination. Animals were acclimated from Day-7 to Day-4. On study Day-1, animals were randomized into eight groups: one vehicle; one tenapanor (0.15 mg/kg); three oxylanthanum carbonate (OLC) (0.75%, 1.5%, and 3%); and three combination treatment with OLC and tenapanor (OLC 0.75%, 1.5%, and 3%+tenapanor 0.15 mg/kg). On study Day 1, animals were switched to high phosphorus diets. Animals were euthanized on Day 11 two hours post last dose. Legend: 1 Body weight and food intake were measured daily from study Day-3 until termination. 2 During the in vivo study period (Days 1 to 11), vehicle and tenapanor were dosed orally twice/day whereas OLC was incorporated into the diets. 3 Urine samples were collected on Days 9, 10, and 11 for phosphate measurements and blood samples were collected for serum phosphate and sodium measurements on day 11 after the final urine sampling. Sixty-four male Sprague Dawley rats of 9 weeks old (11 weeks by the end of the study) were fed standard chow one week prior to study start. On study day-1, animals were randomized into 8 study groups (n=8): 1) vehicle, 2) tenapanor 0.15 mg/kg, 3) Vehicle+OLC 0.75%, 4) Vehicle+OLC 1.5%, 5) Vehicle+OLC 3%, 6) tenapanor 0.15 mg/kg+OLC 0.75%, 7) tenapanor 0.15 mg/kg+OLC 1.5%, and 8) tenapanor 0.15 mg/kg+OLC 3%. Vehicle and tenapanor were dosed PO twice/day whereas OLC was incorporated into the diets. On study Day 1, all animals were switched to high phosphorus diets consisting of chow spiked with 0.4% inorganic phosphorus [(1:1 sodium:potassium salt-wt./wt.), 1.1% total phosphorus content] for the rest of the study. Body weight and food intake were measured daily from study Day-3 until termination. 24-hour urine samples were collected using metabolic cages on day 9, 10, and 11 for urinary P measurements. Mean urinary phosphate excretion for each animal from Days 9 to 11 were averaged by treatment group. While we examined effects separately in each OLC dose group, our primary analyses compared pooled results in the three OLC dose groups combined. We compared pooled results using one-way ANOVA followed by Games-Howell test, and individual groups with vehicle using one-way ANOVA followed by Dunnett's multiple comparison test. A threshold of p<0.05 was used to determine significant differences between groups. Statistical Package for the Social Sciences (SPSS) was used for all statistical analyses. The Bliss model of independence was employed to determine if the combination of OLC and tenapanor was independent, synergistic, or antagonistic. (Zhao W, et al. J Biomol Screen June 2014; 19 (5): 817-821). The Bliss model compares the predicted combination response, calculated using the complete additivity of probability theory based on the observed effect of each individual agent administered alone, with the observed effect of combination treatment. The mean percentage reduction in urinary phosphate excretion relative to vehicle by treatment group was calculated by averaging urinary phosphate excretion for each animal from Days 9 to 11. Paired t-tests were conducted to assess the statistical significance between observed and predicted results. 2-tailed p-values<0.05 are considered to be statistically significant."}, "[2]": {"assay": "Body weight and food intake in the OLC+Tenapanor Combo Study (Example 1)", "conditions": "rat, in vivo", "method": "FIG. 1. Represents the Study Design of the OLC+Tenapanor Combo Study described in Example 1. The study consisted of acclimatization, randomization, in vivo study period, and termination. Animals were acclimated from Day-7 to Day-4. On study Day-1, animals were randomized into eight groups: one vehicle; one tenapanor (0.15 mg/kg); three oxylanthanum carbonate (OLC) (0.75%, 1.5%, and 3%); and three combination treatment with OLC and tenapanor (OLC 0.75%, 1.5%, and 3%+tenapanor 0.15 mg/kg). On study Day 1, animals were switched to high phosphorus diets. Animals were euthanized on Day 11 two hours post last dose. Legend: 1 Body weight and food intake were measured daily from study Day-3 until termination. 2 During the in vivo study period (Days 1 to 11), vehicle and tenapanor were dosed orally twice/day whereas OLC was incorporated into the diets. 3 Urine samples were collected on Days 9, 10, and 11 for phosphate measurements and blood samples were collected for serum phosphate and sodium measurements on day 11 after the final urine sampling. Sixty-four male Sprague Dawley rats of 9 weeks old (11 weeks by the end of the study) were fed standard chow one week prior to study start. […] Body weight and food intake were measured daily from study Day-3 until termination. […] The mean body weight (FIG. 2A) and food intake (FIG. 2B) were measured from Day 1 to 11."}, "[3]": {"conditions": "clinical trials; % of patients; cited from earlier work"}, "[4]": {"conditions": "Games-Howell post-hoc, OLC = average of 0.75%, 1.5%, 3% in chow, tenapanor 0.15 mg/kg/po/bid"}}}
{"smiles": "CN1Cc2c(Cl)cc(Cl)cc2[C@H](c2cccc(S(=O)(=O)NCCOCCOCCNC(=O)NCCCCNC(=O)NCCOCCOCCNS(=O)(=O)c3cccc([C@@H]4CN(C)Cc5c(Cl)cc(Cl)cc54)c3)c2)C1.Cl.Cl", "note": "[Tenapanor, 12,15-Dioxa-2,7,9-triazaheptadecanamide, 17-[[[3-[(4S)-6,8-dichloro-1,2,3,4-tetrahydro-2-methyl-4-isoquinolinyl]phenyl]sulphonyl]amino]-N-[2-[2-[2-[[[3-[(4S)-6,8-dichloro-1,2,3,4-tetrahydro-2-methyl-4-isoquinolinyl]phenyl]sulphonyl]amino]ethoxy]ethoxy]ethyl]-8-oxo-, hydrochloride (1:2)]", "values": [{"measurement": "mean urinary phosphate excretion lower compared to the vehicle group", "setting": "[1]; tenapanor 0.15 mg/kg PO bid, OLC pooled across 0.75, 1.5 and 3% in chow, n=8 per treatment group", "value": 8.5, "unit": "mg/day"}, {"measurement": "Mean Difference (A − B) in mean urinary phosphate excretion, Treatment Group (A) = Vehicle, (B) = labelled treatment", "setting": "[1]; [4]", "value": 8.510, "unit": "mg/day"}, {"measurement": "Mean Difference (A − B) in mean urinary phosphate excretion, Treatment Group (A) = labelled treatment, (B) = OLC", "setting": "[1]; [4]", "value": 3.583, "unit": "mg/day"}, {"measurement": "Mean Difference (A − B) in mean urinary phosphate excretion, Treatment Group (A) = labelled treatment, (B) = OLC + Tenapanor", "setting": "[1]; [4]", "value": 19.543, "unit": "mg/day"}, {"measurement": "Mean Difference (A − B) in mean urinary phosphate excretion, Treatment Group (A) = labelled treatment, (B) = Vehicle", "setting": "[1]; [4]", "value": -8.510, "unit": "mg/day"}, {"measurement": "food intake compared with vehicle", "setting": "[2]", "value": "not significantly affected"}, {"measurement": "diarrhea observed in patients taking tenapanor", "setting": "[3]", "value": 53, "unit": "%"}]}
